Test results taken from patent US20130261130A1, “NEUROTRYPSIN INHIBITORS” (priority 2010, published 2013).

Molecular target: T1, human neurotrypsin (Homo sapiens, UniProt P56730)
T1 sequence (P56730 21-875): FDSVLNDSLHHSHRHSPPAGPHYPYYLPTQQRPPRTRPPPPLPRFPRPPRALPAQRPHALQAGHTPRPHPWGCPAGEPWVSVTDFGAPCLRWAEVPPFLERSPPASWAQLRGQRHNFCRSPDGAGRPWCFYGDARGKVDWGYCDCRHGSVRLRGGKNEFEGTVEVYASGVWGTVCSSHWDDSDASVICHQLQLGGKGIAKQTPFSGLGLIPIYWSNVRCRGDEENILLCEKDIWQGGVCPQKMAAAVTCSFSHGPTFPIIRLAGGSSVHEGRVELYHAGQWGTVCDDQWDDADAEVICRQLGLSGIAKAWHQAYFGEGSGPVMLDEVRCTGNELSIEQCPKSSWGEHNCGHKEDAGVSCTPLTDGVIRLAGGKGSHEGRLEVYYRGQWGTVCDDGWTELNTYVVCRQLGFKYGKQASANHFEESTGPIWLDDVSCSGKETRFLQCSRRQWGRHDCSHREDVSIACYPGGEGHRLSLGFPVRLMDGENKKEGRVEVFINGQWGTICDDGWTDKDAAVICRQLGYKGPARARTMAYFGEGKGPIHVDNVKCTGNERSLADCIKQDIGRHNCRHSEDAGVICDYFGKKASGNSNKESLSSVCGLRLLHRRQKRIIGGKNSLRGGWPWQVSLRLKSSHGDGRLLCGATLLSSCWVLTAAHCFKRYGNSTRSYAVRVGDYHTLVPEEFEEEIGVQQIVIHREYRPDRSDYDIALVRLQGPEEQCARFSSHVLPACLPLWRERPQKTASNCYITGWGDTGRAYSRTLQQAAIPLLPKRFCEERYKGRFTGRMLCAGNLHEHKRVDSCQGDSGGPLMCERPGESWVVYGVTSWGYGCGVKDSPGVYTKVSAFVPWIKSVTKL
Assay: Determination of IC50 for human neurotrypsin
Type: biochemical
Details: human neurotrypsin; method of WO 2006/1103261; read-out: Neurotrypsin IC50
Description: Assessment of the potency of compounds of examples 1-311 in inhibiting the enzymatic activity of human neurotrypsin was performed according to the method described in patent application WO 2006/1103261

Compared with `O=C(Nc1ccc(Cl)cc1)c1ccc(C(=O)O)c(NC(=O)c2ccc(-c3ccccn3)s2)c1` [Example 144, 4-(4-Chlorophenyl-carbamoyl)-2-(5-(pyrid-2-yl)-thiophene-2-carboxamido)-benzoic acid], `O=C(O)c1ccc(NCc2ccc(Cl)cc2)cc1NC(=O)c1sc2ccccc2c1Cl` [Example 280, 2-(3-Chlorobenzo[b]thiophene-2-carboxamido)-4-(4-chlorobenzylamino)-benzoic acid] is 4.4-fold lower in IC50: 22.1 µM for the first, 5 µM for the second.

Compared with `O=C(Nc1ccc(C(=O)N2CCC(Cc3ccccc3)CC2)cc1C(=O)O)c1ccc(-c2ccc(Cl)cc2)s1` [Example 161, 5-(4-Benzylpiperidine-1-carbonyl)-2-(5-(4-chloro-phenyl)thiophene-2-carboxamido)benzoic acid], `O=C(O)c1ccc(Nc2ccc(Cl)cc2)cc1NC(=O)c1sc2ccccc2c1Cl` [Example 288, 2-(3-Chlorobenzo[b]thiophene-2-carboxamido)-4-(4-chlorophenyl-amino)benzoic acid] is 1.7-fold higher in IC50: 3 µM for the first, 5.1 µM for the second. The first is the more potent here.

First: O=C(Nc1ccccc1)c1ccc(NC(=O)c2ccc(-c3nc4cc(Cl)c(Cl)cc4[nH]3)cc2)c(C(=O)O)c1 [Example 138]
Second: O=C(O)c1ccc(C(=O)N2CCC(Oc3ccccc3)CC2)cc1NC(=O)c1sc2ccccc2c1Cl [Example 28, 2-(3-Chlorobenzo[b]-thiophene-2-carboxamido)-4-(4-phenoxypiperidine-1-carbonyl)benzoic acid]
The IC50 of the first is 1.7-fold lower: 6.6 µM for the first, 11.3 µM for the second. The first is the more potent here.

`O=C(NCCc1ccccc1)c1ccc(NC(=O)c2ccc(-c3nc4cc(Cl)c(Cl)cc4[nH]3)cc2)c(C(=O)O)c1` [Example 123] and `O=C(Nc1ccc(Cl)cc1)c1ccc(C(=O)O)c(NC(=O)c2cc3ccc(Cl)cc3s2)c1` [Example 23] are within 1.5-fold of each other in IC50: 3.5 µM for the first, 2.6 µM for the second.

`O=C(O)c1cc(C(=O)N2CCC(c3ccc(F)cc3)CC2)ccc1NC(=O)c1sc2ccccc2c1Cl` [Example 113] and `O=C(Nc1ccccc1F)c1ccc(NC(=O)c2ccc(-c3nc4cc(Cl)c(Cl)cc4[nH]3)cc2)c(C(=O)O)c1` [Example 48, 2-(4-(5,6-Dichloro-1H-benzo[d]imidazol-2-yl)-benzamido)-5-(2-fluoro-phenylcarbamoyl)benzoic acid] are within 1.5-fold of each other in IC50: 2.7 µM for the first, 3.4 µM for the second.

Going from `O=C(Nc1ccc(Cl)cc1)c1ccc(-c2nn[nH]n2)c(NC(=O)c2sc3ccccc3c2Cl)c1` [Example 229, 3-Chloro-benzo[b]thiophene-2-carboxylic acid [5-(4-chloro-phenyl-carbamoyl)-2-(2H-tetrazol-5-yl)phenyl]amide] to `O=C(Nc1ccc(C(=O)O)c(NC(=O)c2sc3ccccc3c2Cl)c1)c1ccc(Cl)cc1` [Example 273], the IC50 rises from 3.7 µM to 7.6 µM (2.1-fold).

`O=C(O)c1cc(C(=O)N2CCC(Cc3ccccc3)CC2)ccc1NC(=O)c1sc2ccccc2c1Cl` [Example 157, 5-(4-Benzylpiperidine-1-carbonyl)-2-(3-chlorobenzo[b]thiophene-2-carboxamido)benzoic acid] and `CC(C)CCN(C)C(=O)c1ccc(NC(=O)c2ccc(-c3nc4cc(Cl)c(Cl)cc4[nH]3)cc2)c(C(=O)O)c1` [Example 43, 2-(4-(5,6-Dichloro-1H-benzo[d]imidazol-2-yl)-benzamido)-5-(N-isopentyl-N-methylcarbamoyl)benzoic acid] are within 1.5-fold of each other in IC50: 3.8 µM for the first, 3.9 µM for the second.

Going from `CN(CC1CCCCC1)C(=O)c1ccc(NC(=O)c2ccc(-c3nc4cc(Cl)c(Cl)cc4[nH]3)cc2)c(C(=O)O)c1` [Example 49, 5-(N-Cyclohexylmethyl-N-methylcarbamoyl)-2-(4-(5,6-dichloro-1H-benzo[d]-imidazol-2-yl)benzamido)-benzoic acid] to `O=C(O)c1cc(C(=O)N2CCC(Cc3ccc(Cl)cc3)CC2)ccc1NC(=O)c1sc2ccccc2c1Cl` [Example 118, 2-(3-Chlorobenzo[b]-thiophene-2-carboxamido)-5-(4-(4-chlorobenzyl)piperidine-1-carbonyl)benzoic acid], the IC50 falls from 6.6 µM to 2.2 µM (3-fold).

Compared with `O=C(O)c1ccc(C(=O)N2CCC(O)(c3ccc(Cl)c(C(F)(F)F)c3)CC2)cc1NC(=O)c1sc2ccccc2c1Cl` [Example 151, 4-(4-(4-Chloro-3-(trifluoro-methyl)phenyl)-4-hydroxy-piperidine-1-carbonyl)-2-(3-chlorobenzo[b]thiophene-2-carboxamido)benzoic acid], `O=C(O)c1cc(N2CC(c3ccc(Cl)cc3)CC2=O)ccc1NC(=O)c1sc2ccccc2c1Cl` (stereo not drawn) [Example 287] is 1.6-fold higher in IC50: 2.7 µM for the first, 4.3 µM for the second.

First: O=C(Nc1ccc(Cl)cc1F)c1ccc(C(=O)O)c(NC(=O)c2sc3ccccc3c2Cl)c1 [Example 5, 2-(3-Chlorobenzo[b]-thiophene-2-carboxamido)-4-(4-chloro-2-fluoro-phenyl-carbamoyl)benzoic acid]
Second: O=C(Nc1ncc(Cl)s1)c1ccc(C(=O)O)c(NC(=O)c2ccc(-c3ccccc3)s2)c1 [Example 62]
The IC50 of the first is 3.9-fold lower: 1.9 µM for the first, 7.5 µM for the second. The first is the more potent here.

First: N-(5-(5-Chloro-1,3-thiazol-2-ylcarbamoyl)-2-(2H-tetrazol-5-yl)phenyl)-5-phenyl-thiophene-2-carboxamide [Example 228]
Second: O=C(O)c1cc(C(=O)N2CCC(Cc3ccc(F)cc3)CC2)ccc1NC(=O)c1sc2ccccc2c1Cl [Example 114]
The IC50 of the first is 2.2-fold higher: 6.6 µM for the first, 3 µM for the second. The second is the more potent here.

Going from `CC(C)(C)c1cccc(NC(=O)c2ccc(C(=O)O)c(NC(=O)c3sc4ccccc4c3Cl)c2)c1` [Example 75] to `O=C(Nc1ccc(Cl)cc1)c1ccc(C(=O)O)c(NC(=O)c2ccc(-c3ccccc3)s2)c1` [Example 9, 4-(4-Chlorophenyl-carbamoyl)-2-(5-phenyl-thiophene-2-carboxamido)-benzoic acid], the IC50 rises from 5.6 µM to 25.7 µM (4.6-fold). The first is the more potent here.

`O=C(Nc1ccc(Cl)cc1)c1ccc(NC(=O)c2ccc(-c3cccs3)cc2O)c(C(=O)O)c1` [Example 120, 5-(4-Chlorophenyl-carbamoyl)-2-(2-hydroxy-4-(thiophen-2-yl)benzamido)-benzoic acid] and `O=C(O)c1ccc(-c2cn(-c3ccc(Cl)cc3)nn2)cc1NC(=O)c1sc2ccccc2c1Cl` [Example 257, 2-(3-Chlorobenzo[b]thiophene-2-carboxamido)-4-(1-(4-chlorophenyl)-1H-1,2,3-triazol-4-yl)benzoic acid] are within 1.5-fold of each other in IC50: 4.1 µM for the first, 3.8 µM for the second.

Compared with `O=C(O)c1ccc(C(=O)N2CCCc3ccccc32)cc1NC(=O)c1sc2ccccc2c1Cl` [Example 97], `O=C(Nc1ccc(C(=O)N2CCC(Cc3ccccc3)CC2)cc1C(=O)O)c1cc2ccc(Cl)cc2s1` [Example 158, 5-(4-Benzylpiperidine-1-carbonyl)-2-(6-chloro-benzo[b]thiophene-2-carboxamido)benzoic acid] is 2.7-fold lower in IC50: 10.3 µM for the first, 3.8 µM for the second.

Going from `O=C(O)c1ccc(C#Cc2ccc(Cl)cc2)cc1NC(=O)c1sc2ccccc2c1Cl` [Example 248] to `COc1ccc(C2CCN(C(=O)c3ccc(NC(=O)c4sc5ccccc5c4Cl)c(C(=O)O)c3)CC2)cc1` [Example 116], the IC50 falls from over 150 µM to 2.4 µM. The second is the more potent here.

Going from `CC(C)(C)c1ccc(NC(=O)c2ccc(C(=O)O)c(NC(=O)c3sc4ccccc4c3Cl)c2)cc1` [Example 69] to `O=C(O)c1ccc(C(=O)Nc2ccc(Cc3ccccc3)cc2)c(NC(=O)c2sccc2Cl)c1` [Example 196, 4-(4-Benzylphenyl-carbamoyl)-3-(3-chloro-thiophene-2-carboxamido)-benzoic acid], the IC50 rises from 3.1 µM to 10.2 µM (3.3-fold). The first is the more potent here.

`O=C(O)c1ccc(NC(=O)N2CCC(c3ccccc3)CC2)cc1NC(=O)c1sc2ccccc2c1Cl` [Example 279] showed an IC50 of 5.4 µM.
